Data on twelve compounds can be found in patent US7696129B2, “Substituted aromatic amide derivative, intermediate thereof, agrohorticultural insecticide containing thereof and method for the use thereof” (Nihon Nohyaku Co., Ltd., priority 2001, dated 2010).

Holding throughout (type): in vivo
Data set [1] deals with Diamond Back Moth (Plutella xylostella). The data set can be described thus: Test Example 1: insecticidal effect on diamond back moth, immersion of Chinese cabbage seedling with eggs. The note with it: 50 ppm, seedling with eggs immersed about 30 seconds, 25° C., six days after the immersion. An excerpt:
Insecticidal Effect on Diamond Back Moth (Plutella xylostella)
Adult diamond back moths were released and allowed to oviposit on a Chinese cabbage seedling. Two days after the release, the seedling having the eggs deposited thereon was immersed for about 30 seconds in a liquid chemical prepared by diluting a preparation containing each compound listed in Tables 4 to 9 as an active ingredient to adjust the concentration to 50 ppm. After air-dryness, it was allowed to stand in a room thermostatted at 25° C. Six days after the immersion, the hatched insects were counted. The mortality was calculated according to the following equation and the insecticidal effect was judged according to the criterion shown below. The test was carried out with triplicate groups of 10 insects.

Data set [2] deals with Smaller Tea Tortrix (Adxophyes sp.). The data set can be described thus: Test Example 3: insecticidal effect on smaller tea tortrix, tea leaf immersion. The note with it: 50 ppm, tea leaves immersed about 30 seconds, larvae, 25° C., humidity 70%, eight days after the inoculation. The procedure: Insecticidal Effect on Smaller Tea Tortrix (Adxophyes sp.)
Tea leaves were immersed for about 30 seconds in a liquid chemical prepared by diluting a preparation containing each compound listed in Tables 1 to 3 as an active ingredient to adjust the concentration to 50 ppm. After air-dryness, the tea leaves were placed in a plastic Petri dish with a diameter of 9 cm and inoculated with larvae of smaller tea tortrix, after which the dish was allowed to stand in a room thermostatted at 25° C. and having a humidity of 70%. Eight days after the inoculation, the dead and alive were counted and the insecticidal effect was judged according to the criterion shown in Test Example 1. The test was carried out with triplicate groups of 10 insects.

In data set [3] the test system is Common Cutworm (Spodoptera litura). Description: Test Example 2: insecticidal effect on common cutworm, cabbage leaf immersion. The note with it: 50 ppm, cabbage leaf immersed about 30 seconds, second-instar larvae, 25° C., eight days after the inoculation. The text has this:
Insecticidal Effect on Common Cutworm (Spodoptera litura)
A piece of cabbage leaf (cultivar; Shikidori) was immersed for about 30 seconds in a liquid chemical prepared by diluting a preparation containing each compound listed in Tables 4 to 9 as an active ingredient to adjust the concentration to 50 ppm. After air-dryness, it was placed in a plastic Petri dish with a diameter of 9 cm and inoculated with second-instar larvae of common cutworm, after which the dish was closed and then allowed to stand in a room thermostatted at 25° C. Eight days after the inoculation, the dead and alive were counted. The mortality was calculated according to the following equation and the insecticidal effect was judged according to the criterion shown in Test Example 1. The test was carried out with triplicate groups of 10 insects.

Regarding `CSCC(C)(C)NC(=O)c1c(I)cccc1C(=O)Nc1ccc(CC(F)(F)F)cc1C` [5-1], in data set [1], the “Test Example 1 (insecticidal effect, mortality criterion)” value is given as “A (Mortality 100%)”. For the same compound, the “Test Example 3 (insecticidal effect, mortality criterion)” value in data set [2] is “A (Mortality 100%)”. For the same compound, the “Test Example 2 (insecticidal effect, mortality criterion)” value in data set [3] is given as “A (Mortality 100%)”.

As for `CSCC(C)(C)NC(=O)c1c(I)cccc1C(=O)Nc1ccc(CC(F)(F)F)cc1F` [5-3], the “Test Example 1 (insecticidal effect, mortality criterion)” value in data set [1] is “A (Mortality 100%)”. In addition, the “Test Example 3 (insecticidal effect, mortality criterion)” value in data set [2] is on record as “A (Mortality 100%)”. Also, in data set [3], the “Test Example 2 (insecticidal effect, mortality criterion)” value is listed as “A (Mortality 100%)”.

For the compound `CSCC(C)(C)NC(=O)c1c(I)cccc1C(=O)Nc1ccc(CC(F)(F)F)cc1Cl` [5-4], the “Test Example 1 (insecticidal effect, mortality criterion)” value in data set [1] is listed as “A (Mortality 100%)”. In addition, in data set [2], the “Test Example 3 (insecticidal effect, mortality criterion)” value is recorded as “A (Mortality 100%)”. In addition, the “Test Example 2 (insecticidal effect, mortality criterion)” value in data set [3] is reported as “A (Mortality 100%)”.

In the case of `CSCC(C)(C)NC(=O)c1c(I)cccc1C(=O)Nc1ccc(CC(F)(F)C(F)(F)F)cc1C` [5-5], the “Test Example 1 (insecticidal effect, mortality criterion)” value in data set [1] was “A (Mortality 100%)”. Further, the “Test Example 3 (insecticidal effect, mortality criterion)” value in data set [2] was “A (Mortality 100%)”. For the same compound, in data set [3], the “Test Example 2 (insecticidal effect, mortality criterion)” value is “A (Mortality 100%)”.

As to `CSCC(C)(C)NC(=O)c1c(I)cccc1C(=O)Nc1ccc(CC(F)(F)C(F)(F)F)cc1F` [5-6], the “Test Example 1 (insecticidal effect, mortality criterion)” value in data set [1] was “A (Mortality 100%)”. Also, the “Test Example 3 (insecticidal effect, mortality criterion)” value in data set [2] is on record as “A (Mortality 100%)”. For the same compound, the “Test Example 2 (insecticidal effect, mortality criterion)” value in data set [3] was “A (Mortality 100%)”.

With `CSCC(C)(C)NC(=O)c1c(I)cccc1C(=O)Nc1ccc(CC(F)(F)C(F)(F)C(F)(F)F)cc1C` [5-7], the “Test Example 1 (insecticidal effect, mortality criterion)” value in data set [1] is reported as “A (Mortality 100%)”. The “Test Example 3 (insecticidal effect, mortality criterion)” value in data set [2] is listed as “A (Mortality 100%)”. Also, the “Test Example 2 (insecticidal effect, mortality criterion)” value in data set [3] is on record as “A (Mortality 100%)”.

For the compound `CSCC(C)(C)NC(=O)c1c(I)cccc1C(=O)Nc1ccc(CC(F)(F)C(F)(F)C(F)(F)C(F)(F)C(F)(F)F)cc1CC(F)(F)C(F)(F)C(F)(F)C(F)(F)C(F)(F)F` [5-8], the “Test Example 1 (insecticidal effect, mortality criterion)” value in data set [1] is reported as “A (Mortality 100%)”. The “Test Example 3 (insecticidal effect, mortality criterion)” value in data set [2] is “A (Mortality 100%)”. For the same compound, the “Test Example 2 (insecticidal effect, mortality criterion)” value in data set [3] was “A (Mortality 100%)”.

On to `CC(C)NC(=O)c1c(I)cccc1C(=O)Nc1ccc(C(C(F)(F)F)C(F)(F)F)cc1` [5-9], for which the “Test Example 1 (insecticidal effect, mortality criterion)” value in data set [1] is “A (Mortality 100%)”. For the same compound, in data set [2], the “Test Example 3 (insecticidal effect, mortality criterion)” value was “A (Mortality 100%)”. Further, the “Test Example 2 (insecticidal effect, mortality criterion)” value in data set [3] is on record as “A (Mortality 100%)”.

Regarding `CSCC(C)(C)NC(=O)c1c(I)cccc1C(=O)Nc1ccc(C(C(F)(F)F)C(F)(F)F)cc1` [5-10], the “Test Example 1 (insecticidal effect, mortality criterion)” value in data set [1] is reported as “A (Mortality 100%)”. The “Test Example 3 (insecticidal effect, mortality criterion)” value in data set [2] is reported as “A (Mortality 100%)”. Further, the “Test Example 2 (insecticidal effect, mortality criterion)” value in data set [3] is “A (Mortality 100%)”.

For `Cc1cc(C(C(F)(F)F)C(F)(F)F)ccc1NC(=O)c1ccccc1C(=O)NC(C)C` [5-11], the “Test Example 1 (insecticidal effect, mortality criterion)” value in data set [1] is “A (Mortality 100%)”. Also, the “Test Example 3 (insecticidal effect, mortality criterion)” value in data set [2] was “A (Mortality 100%)”. Further, the “Test Example 2 (insecticidal effect, mortality criterion)” value in data set [3] is “E (Mortality 49% or less)”.

For the compound `CON=CC(C)(C)NC(=O)c1ccccc1C(=O)Nc1ccc(C(C(F)(F)F)C(F)(F)F)cc1C` [5-12], in data set [1], the “Test Example 1 (insecticidal effect, mortality criterion)” value is “A (Mortality 100%)”. Further, in data set [2], the “Test Example 3 (insecticidal effect, mortality criterion)” value is given as “A (Mortality 100%)”. Further, the “Test Example 2 (insecticidal effect, mortality criterion)” value in data set [3] was “E (Mortality 49% or less)”.

In the case of `Cc1cc(C(C(F)(F)F)C(F)(F)F)ccc1NC(=O)c1cccc(I)c1C(=O)NC(C)(C)CC(C)(C)C` [5-23], the “Test Example 1 (insecticidal effect, mortality criterion)” value in data set [1] was “A (Mortality 100%)”. Moreover, the “Test Example 3 (insecticidal effect, mortality criterion)” value in data set [2] is given as “A (Mortality 100%)”.
